The values that follow come from publication PMC4575222 (ChemMedChem, 2011).

The half-life is how long it takes for the measured level to halve.

Series [1] can be described thus: Metabolic stability in mouse liver microsomes. To be noted: for Qp,h (percentage ratio of predicted clearance over plasma flow): well-stirred model; for half-life: mouse, liver microsomes. The series is classed as in vitro ADME.
Series [2] concerns Vero cells. Kind of series: Cytotoxicity against Vero cells. The series is classed as cell-based.

For the compound `Cc1c(C)c(=O)n2c([nH]c3ccccc32)c1C#N` [3w, 2,3-Dimethyl-1-oxo-1H,5H-pyrido[1,2-a]benzimidazole-4-carbonitrile], in series [1] (mouse liver microsomes, 30 min incubation), the Half life entry was “most stable member of the set of compounds tested”. The “Qp,h (percentage ratio of predicted clearance over plasma flow)” value in series [1] (mouse liver microsomes) is reported as 72.5%. In series [1], this compound returned a half-life of 51.2 min.
As to `Cc1c(Cc2ccc(Cl)cc2)c(=O)n2c([nH]c3ccccc32)c1C#N` [3a, 2-(4-Chlorobenzyl)-3-methyl-1-oxo-1H,5H-pyrido[1,2-a]benzimidazole-4-carbonitrile], in series [1] (mouse liver microsomes), the “Qp,h (percentage ratio of predicted clearance over plasma flow)” value is on record as 95.4%. This compound also had a half-life in series [1] of 6.5 min. Moreover, in series [2] (IC50 Vero cells over MICMABA, repeat testing), the “selectivity index (SI)” value was 16. Also, the “toxicity toward Vero cells from the HTS studies” value in series [2] (initial HTS study, before repeat testing) is > 100 µm.
With `Cc1c(Cc2cccc(C(F)(F)F)c2)c(=O)n2c([nH]c3ccccc32)c1C#N` [3d, 3-Methyl-1-oxo-2-[3-(trifluoromethyl)benzyl]-1H,5H-pyrido[1,2-a]-benzimidazole-4-carbonitrile], the “Qp,h (percentage ratio of predicted clearance over plasma flow)” value in series [1] (mouse liver microsomes) is 90.0%. The compound further showed a half-life in series [1] of 15 min.
On the same counts, the results for `Cc1c(Cc2ccccc2)c(=O)n2c([nH]c3ccccc32)c1C#N` [3v, 2-Benzyl-3-methyl-1-oxo-1H,5H-pyrido[1,2-a]benzimidazole-4-carbonitrile] are 94.5% and 7.82 min.
On the same counts, the results for `COc1cccc(Cc2c(C)c(C#N)c3[nH]c4ccccc4n3c2=O)c1` [3e, 3-Methyl-2-(3-methoxybenzyl)-1-oxo-1H,5H-pyrido[1,2-a]benzimidazole-4-carbonitrile] are 93.5% and 9.43 min.
